From patent US20230141603A1, “BENZODIAZEPINE DERIVATIVES AS GABA A GAMMA1 PAM” (Hoffmann-La Roche Inc., priority 2021, published 2023)

The compounds below were run against T1, h-GABAA α2β2γ1 (Homo sapiens, UniProt P47869+Q8N1C3) (assay: Radioligand binding assay, [3H]RO7239181 competition, HEK293F membranes).
T1 sequence (P47869 29-451): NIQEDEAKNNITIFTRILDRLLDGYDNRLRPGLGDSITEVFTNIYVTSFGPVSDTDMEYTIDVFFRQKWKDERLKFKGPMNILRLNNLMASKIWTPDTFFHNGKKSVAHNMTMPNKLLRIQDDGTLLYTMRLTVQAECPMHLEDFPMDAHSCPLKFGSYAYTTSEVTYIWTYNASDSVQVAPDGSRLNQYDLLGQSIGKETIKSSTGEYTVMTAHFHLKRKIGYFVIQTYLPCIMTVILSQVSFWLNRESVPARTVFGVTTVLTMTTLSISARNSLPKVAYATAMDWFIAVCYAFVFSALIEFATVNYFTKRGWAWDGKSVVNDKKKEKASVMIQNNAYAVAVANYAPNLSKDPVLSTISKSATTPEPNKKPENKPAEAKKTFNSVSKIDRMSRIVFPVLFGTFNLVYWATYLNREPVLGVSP
T1 sequence (P47870 25-512 partner limits assumed): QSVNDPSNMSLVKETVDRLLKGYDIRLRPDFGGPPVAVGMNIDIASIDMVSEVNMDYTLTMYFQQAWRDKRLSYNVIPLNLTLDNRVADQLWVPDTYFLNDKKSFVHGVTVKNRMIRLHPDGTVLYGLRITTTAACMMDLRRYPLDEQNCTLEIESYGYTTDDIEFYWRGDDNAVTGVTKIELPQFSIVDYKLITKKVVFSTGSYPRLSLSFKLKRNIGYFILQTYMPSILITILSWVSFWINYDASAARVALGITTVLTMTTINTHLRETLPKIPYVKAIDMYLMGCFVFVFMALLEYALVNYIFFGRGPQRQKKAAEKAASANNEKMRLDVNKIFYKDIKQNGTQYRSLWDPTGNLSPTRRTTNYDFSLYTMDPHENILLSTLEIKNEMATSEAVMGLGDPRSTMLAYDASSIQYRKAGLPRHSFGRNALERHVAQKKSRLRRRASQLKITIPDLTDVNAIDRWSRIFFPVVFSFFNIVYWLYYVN
T1 sequence (Q8N1C3 36-465): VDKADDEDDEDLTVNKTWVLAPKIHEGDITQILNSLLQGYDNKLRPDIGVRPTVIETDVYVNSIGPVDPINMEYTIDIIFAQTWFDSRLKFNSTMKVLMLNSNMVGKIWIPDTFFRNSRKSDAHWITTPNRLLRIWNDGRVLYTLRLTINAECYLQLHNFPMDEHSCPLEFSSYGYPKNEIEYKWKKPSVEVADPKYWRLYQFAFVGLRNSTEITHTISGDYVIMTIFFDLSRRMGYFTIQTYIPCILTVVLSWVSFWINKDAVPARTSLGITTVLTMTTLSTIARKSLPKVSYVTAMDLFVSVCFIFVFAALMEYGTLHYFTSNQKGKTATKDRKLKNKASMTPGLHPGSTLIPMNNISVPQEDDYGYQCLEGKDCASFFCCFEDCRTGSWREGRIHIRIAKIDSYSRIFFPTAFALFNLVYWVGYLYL
Design: signal peptide of human GABAA α5 subunit (Met1 to Ser31), replacing the α2 signal peptide (N); expressed in transfected cells; host or cells: HEK293F cells (ThermoFisher R79007), membranes
Experimental: The affinity of compounds at GABAA γ1 subunit-containing receptors was measured by competition for [^3H]RO7239181 (67.3 Ci/mmol; Roche) binding to membranes from HEK293F cells (ThermoFisher R79007) expressing human (transiently transfected) receptors of composition […], α2β2γ1, α1β2γ1.
Harvested pellets from HEK293F cells expressing the different GABAA receptor subtypes were resuspended in Mannitol Buffer pH 7.2-7.4 (Mannitol 0.29M, Triethylamine 10 mM, Acetic acid 10 mM, EDTA 1 mM plus protease inhibitors (20 tablets Complete, Roche Diagnostics Cat. No. 05 056 489 001 per liter)), washed two times and then resuspended at 1:10 to 1:15 dilution in the same buffer. Cell disruption was performed by stirring the suspension in a Parr vessel #4637 at 435 psi for 15 minutes, and then the suspensions were centrifuged at 1000×g for 15 minutes at 4° C. (Beckman Avanti J-HC; rotor JS-4.2). The supernatant (S1) was transferred in a 21 Schott flask and the pellet (P1) was resuspended with Mannitol Buffer up to 175 ml. The resuspended pellet was transferred into a 250 ml Corning centrifugal beaker and centrifuged at 1500×g for 10 minutes at 4° C. (Beckman Avanti J-HC; rotor JS-4.2). The supernatant (S1) was then transferred in the 21 Schott flask and the pellet was discarded. The supernatants (S1) were centrifuged in 500 ml Beckman polypropylene centrifugal beaker at 15′000×g for 30 minutes at 4° C. (Beckman Avanti J-20 XP; rotor JLA-10.500). The pellet (P2) was resuspended with Mannitol Buffer 1:1 and frozen at −80° C. The supernatant (S2) was centrifuged in 100 ml Beckman polypropylene centrifugal tubes at 48000×g for 50 minutes at 4° C. (Beckman Avanti J-20 XP; rotor JA-18). The supernatant (S3) was discarded and the pellet (P3) was resuspended with 1:1 Mannitol Buffer. The P2 and P3 protein concentration was determined with the BIORAD Standard assay method with bovine serum albumin as standard and measured on the NANO-Drop 1000. The membrane suspension was aliquots (500 μl per tube) and stored at −80° C. until required. Membrane homogenates were resuspended and polytronised (Polytron PT1200E Kinematica AG) in Potassium Phosphate 10 mM, KCl 100 mM binding buffer at pH 7.4 to a final assay concentration determined with a previous experiment.
Assays were incubated to equilibrium for 1 hour at 4° C. and then, membranes were filtered onto unifilter (96-well white microplate with bonded GF/C filters preincubated 20-50 minutes in 0.3% Polyethylenimine) with a Filtermate 196 harvester (Packard BioScience) and washed 4 times with cold Potassium Phosphate 10 mM pH 7.4, KCl 100 mM binding buffer. After drying, filter-retained radioactivity was detected by liquid scintillation counting. Ki values were calculated using Excel-Fit (Microsoft) and are the means of two determinations.
In the case of Cc1nnc2n1-c1ccc(Br)c(Cl)c1C(c1ncccc1F)=NC2 [Example 24, 8-bromo-7-chloro-6-(3-fluoro-2-pyridyl)-1-methyl-4H-[1,2,4]triazolo[4,3-a][1,4]benzodiazepine], the Ki is reported as 24.3 nM. Work on Cc1nnc2n1-c1ccc(C(F)F)c(Cl)c1C(c1c(F)cccc1F)=NC2 [Example 25, 7-chloro-8-(difluoromethyl)-6-(2,6-difluorophenyl)-1-methyl-4H-[1,2,4]triazolo[4,3-a][1,4]benzodiazepine] yielded a Ki of 49.2 nM. Compound O=c1[nH]nc2n1-c1ccc(Br)c(Cl)c1C(c1ccccc1F)=NC2 [Example 26, 8-bromo-7-chloro-6-(2-fluorophenyl)-2,4-dihydro-[1,2,4]triazolo[4,3-a][1,4]benzodiazepin-1-one] has a Ki of 31.6 nM. Work on Fc1ccccc1C1=NCc2nnc(-c3cccnn3)n2-c2ccc(C(F)(F)F)c(Cl)c21 [Example 27, 7-chloro-6-(2-fluorophenyl)-1-pyridazin-3-yl-8-(trifluoromethyl)-4H-[1,2,4]triazolo[4,3-a][1,4]benzodiazepine] yielded a Ki of 84.5 nM. In the case of Cn1cc(-c2nnc3n2-c2ccc(Cl)c(Cl)c2C(c2c(F)cccc2F)=NC3)cn1 [Example 28, 7,8-dichloro-6-(2,6-difluorophenyl)-1-(1-methylpyrazol-4-yl)-4H-[1,2,4]triazolo[4,3-a][1,4]benzodiazepine], the Ki is reported as 9.4 nM. For Fc1cccnc1C1=NCc2nncn2-c2ccc(Br)c(Cl)c21 [Example 29, 8-bromo-7-chloro-6-(3-fluoro-2-pyridyl)-4H-[1,2,4]triazolo[4,3-a][1,4]benzodiazepine], the Ki was 47.4 nM. With OCc1nnc2n1-c1ccc(Br)c(Cl)c1C(c1c(F)cccc1F)=NC2 [Example 33, [8-bromo-7-chloro-6-(2,6-difluorophenyl)-4H-[1,2,4]triazolo[4,3-a][1,4]benzodiazepin-1-yl]methanol] the Ki was 12.7 nM. Work on Fc1cccc(F)c1C1=NCc2nncn2-c2ccc(I)c(Cl)c21 [Example 34, 7-chloro-6-(2,6-difluorophenyl)-8-iodo-4H-[1,2,4]triazolo[4,3-a][1,4]benzodiazepine] yielded a Ki of 10.1 nM. Work on Cl.NCc1nnc2n1-c1ccc(Br)c(Cl)c1C(c1c(F)cccc1F)=NC2 [Example 36, [8-bromo-7-chloro-6-(2,6-difluorophenyl)-4H-[1,2,4]triazolo[4,3-a][1,4]benzodiazepin-1-yl]methanamine hydrochloride] yielded a Ki of 8.5 nM. Fc1cccc(F)c1C1=NCc2nncn2-c2ccc(C(F)(F)F)c(Cl)c21 [Example 37, 7-chloro-6-(2,6-difluorophenyl)-8-(trifluoromethyl)-4H-[1,2,4]triazolo[4,3-a][1,4]benzodiazepine] gave a Ki of 41.4 nM. Fc1cccc(F)c1C1=NCc2nnc(-c3cccnn3)n2-c2ccc(C(F)(F)F)c(Cl)c21 [Example 38, 7-chloro-6-(2,6-difluorophenyl)-1-pyridazin-3-yl-8-(trifluoromethyl)-4H-[1,2,4]triazolo[4,3-a][1,4]benzodiazepine] showed a Ki of 12.6 nM. For Fc1cccc(F)c1C1=NCc2nnc(-c3cccnn3)n2-c2ccc(I)c(Cl)c21 [Example 39, 7-chloro-6-(2,6-difluorophenyl)-8-iodo-1-pyridazin-3-yl-4H-[1,2,4]triazolo[4,3-a][1,4]benzodiazepine], the Ki was 4.2 nM. Cc1nnc2n1-c1ccc(C(F)(F)F)c(Cl)c1C(c1c(F)cccc1F)=NC2 [Example 40, 7-chloro-6-(2,6-difluorophenyl)-1-methyl-8-(trifluoromethyl)-4H-[1,2,4]triazolo[4,3-a][1,4]benzodiazepine] was tested, and the Ki was 26.8 nM. Cc1nnc2n1-c1ccc(I)c(Cl)c1C(c1c(F)cccc1F)=NC2 [Example 41, 7-chloro-6-(2,6-difluorophenyl)-8-iodo-1-methyl-4H-[1,2,4]triazolo[4,3-a][1,4]benzodiazepine] showed a Ki of 5.5 nM. Fc1cccc(F)c1C1=NCc2nnc(-c3cccnn3)n2-c2ccc(Br)c(Br)c21 [Example 42, 7,8-dibromo-6-(2,6-difluorophenyl)-1-pyridazin-3-yl-4H-[1,2,4]triazolo[4,3-a][1,4]benzodiazepine] was tested, and the Ki was 5.5 nM. Fc1cccc(F)c1C1=NCc2nnc(-c3ccncn3)n2-c2ccc(Br)c(Br)c21 [Example 43, 7,8-dibromo-6-(2,6-difluorophenyl)-1-pyrimidin-4-yl-4H-[1,2,4]triazolo[4,3-a][1,4]benzodiazepine] was tested, and the Ki was 5.8 nM. In the case of Clc1cccnc1C1=NCc2nnc(-c3ccncn3)n2-c2ccc(Br)c(Cl)c21 [Example 44, 8-bromo-7-chloro-6-(3-chloro-2-pyridyl)-1-pyrimidin-4-yl-4H-[1,2,4]triazolo[4,3-a][1,4]benzodiazepine], the Ki is reported as 9.6 nM. In the case of Fc1cccnc1C1=NCc2nnc(-c3cccnn3)n2-c2ccc(Br)c(Cl)c21 [Example 45, 8-bromo-7-chloro-6-(3-fluoro-2-pyridyl)-1-pyridazin-3-yl-4H-[1,2,4]triazolo[4,3-a][1,4]benzodiazepine], the Ki is reported as 15.8 nM. In the case of Fc1cccnc1C1=NCc2nnc(-c3ccncn3)n2-c2ccc(Br)c(Cl)c21 [Example 46, 8-bromo-7-chloro-6-(3-fluoro-2-pyridyl)-1-pyrimidin-4-yl-4H-[1,2,4]triazolo[4,3-a][1,4]benzodiazepine], the Ki is reported as 25.3 nM. In the case of Clc1cccnc1C1=NCc2nnc(-c3cccnn3)n2-c2ccc(Br)c(Cl)c21 [Example 47, 8-bromo-7-chloro-6-(3-chloro-2-pyridyl)-1-pyridazin-3-yl-4H-[1,2,4]triazolo[4,3-a][1,4]benzodiazepine], the Ki is reported as 15.9 nM. Cc1ccc2c(c1Cl)C(c1c(F)cccc1F)=NCc1nnc(-c3cccnn3)n1-2 [Example 48, 7-chloro-6-(2,6-difluorophenyl)-8-methyl-1-pyridazin-3-yl-4H-[1,2,4]triazolo[4,3-a][1,4]benzodiazepine] was tested, and the Ki was 8.3 nM. In the case of Cc1ccc2c(c1Cl)C(c1c(F)cccc1F)=NCc1nnc(-c3ccncn3)n1-2 [Example 49, 7-chloro-6-(2,6-difluorophenyl)-8-methyl-1-pyrimidin-4-yl-4H-[1,2,4]triazolo[4,3-a][1,4]benzodiazepine], the Ki is reported as 14.1 nM.
